Source: PMC7296167, “SrrB, a Pseudo-Receptor Protein, Acts as a Negative Regulator for Lankacidin and Lankamycin Production in Streptomyces rochei” (Frontiers in Microbiology, 2020)

How the values were obtained:
SrrA = molecular target: T1, SrrA (Streptomyces rochei, UniProt Q83X22); experiment: gel shift assay, dissociation from […]-labelled srrB probe B1 and srrY probe Y1; format: binding; conditions: […] SRB1 on probe B1, concentration series on probe Y1; […] SrrA, […] probe, […] C, pH […]
T1 construct: recombinant, overexpressed in E. coli, prepared as in Yamamoto et al. 2008
T1 sequence (Q83X22 1-222): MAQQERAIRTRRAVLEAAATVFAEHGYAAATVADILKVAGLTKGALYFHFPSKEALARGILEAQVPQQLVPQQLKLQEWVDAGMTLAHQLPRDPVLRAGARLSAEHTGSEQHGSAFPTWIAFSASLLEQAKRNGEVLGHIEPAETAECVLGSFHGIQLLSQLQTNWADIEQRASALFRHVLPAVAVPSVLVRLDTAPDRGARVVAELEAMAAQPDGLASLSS

SrrB = molecular target: T2, SrrB (Streptomyces rochei, UniProt Q83X25); experiment: gel shift assay, dissociation from […]-labelled srrY promoter probe Y1; format: binding; conditions: 0.5 nM probe Y1, 2,000 nM SrrB, 26 C, pH 8.0; DNA release read-out
T2 construct: pET32b(+) His6 fusion from E. coli BL21(DE3)pLysS; N-terminal tag removed with enterokinase
T2 sequence (Q83X25 1-228): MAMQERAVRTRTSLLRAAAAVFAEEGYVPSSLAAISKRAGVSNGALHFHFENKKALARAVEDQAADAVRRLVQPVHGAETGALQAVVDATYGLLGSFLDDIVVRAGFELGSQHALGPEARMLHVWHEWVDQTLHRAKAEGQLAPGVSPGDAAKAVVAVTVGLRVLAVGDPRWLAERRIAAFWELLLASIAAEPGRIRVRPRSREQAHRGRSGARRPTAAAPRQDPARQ

## CC1=C([C@H](O)CCCCC(=O)CC(C)C)C(=O)OC1O (some centres unmarked) [compound 7, SRB1]
SrrA
  gel shift assay, dissociation from 32P-labelled srrB probe B1 and srrY probe Y1: Addition of SRB led to dissociation of SrrA from probe B1
SrrB
  concentration required for dissociation: 1 mM
